Results as given in ChEMBL document CHEMBL1821675, “The selective P-TEFb inhibitor CAN508 targets angiogenesis” (Eur J Med Chem, 2011).
Activity calls are given as the source filed them. The calls are words filed in the database; no cut-off is given here.

Experiments:
[1] = target: MAP kinase-interacting serine/threonine-protein kinase 1 (Homo sapiens) (UniProt Q9BUB5); test: Inhibition of MNK1 assessed as residual activity at 10 uM by radioactivity assay in presence of 50 uM ATP
[2] = target: Cyclin-dependent kinase 7 (Homo sapiens) (UniProt P50613); test: Inhibition of CDK7-catalyzed RNA polymerase 2 phosphorylation at Ser5 in human MCF7 cells at 5 to 40 uM after 2 hrs by immunoblotting; assay type: cell-based
[3] = target: SRSF protein kinase 1 (Homo sapiens) (UniProt Q96SB4); test: Inhibition of SRPK1 assessed as residual activity at 10 uM by radioactivity assay in presence of 50 uM ATP
[4] = target: Maternal embryonic leucine zipper kinase (Homo sapiens) (UniProt Q14680); test: Inhibition of MELK assessed as residual activity at 10 uM by radioactivity assay in presence of 50 uM ATP
MCF7 [5] = test: Cytotoxicity against human MCF7 cells; assay type: functional
Malme-3M = test: Cytotoxicity against human MALME-3M cells; assay type: functional
[6] = target: Aurora kinase A (Homo sapiens) (UniProt O14965); test: Inhibition of Aurora A assessed as residual activity at 10 uM by radioactivity assay in presence of 5 uM ATP
[7] = target: Calcium/calmodulin-dependent protein kinase kinase 2 (Homo sapiens) (UniProt Q96RR4); test: Inhibition of CAMKKbeta assessed as residual activity at 10 uM by radioactivity assay in presence of 20 uM ATP
UO-31 = test: Cytotoxicity against human UO31 cells; assay type: functional
[8] = target: 3-phosphoinositide-dependent protein kinase 1 (Homo sapiens) (UniProt O15530); test: Inhibition of PDK1 assessed as residual activity at 10 uM by radioactivity assay in presence of 20 uM ATP
IGROV-1 = test: Cytotoxicity against human IGROV1 cells; assay type: functional
[9] = target: Serine/threonine-protein kinase pim-2 (Homo sapiens) (UniProt Q9P1W9); test: Inhibition of PIM2 assessed as residual activity at 10 uM by radioactivity assay in presence of 5 uM ATP
[10] = target: Casein kinase I isoform delta (Homo sapiens) (UniProt P48730); test: Inhibition of CK1delta assessed as residual activity at 10 uM by radioactivity assay in presence of 20 uM ATP
SNB-19 = test: Cytotoxicity against human SNB19 cells; assay type: functional
[11] = target: Inhibitor of nuclear factor kappa-B kinase subunit beta (Homo sapiens) (UniProt O14920); test: Inhibition of IKK-beta assessed as residual activity at 10 uM by radioactivity assay in presence of 5 uM ATP
[12] = target: Mitogen-activated protein kinase 10 (Homo sapiens) (UniProt P53779); test: Inhibition of JNK3alpha1 assessed as residual activity at 10 uM by radioactivity assay in presence of 20 uM ATP
[13] = target: Casein kinase II subunit alpha (Homo sapiens) (UniProt P68400); test: Inhibition of CK2alpha assessed as residual activity at 10 uM by radioactivity assay in presence of 20 uM ATP
[14] = target: Homeodomain-interacting protein kinase 2 (Homo sapiens) (UniProt Q9H2X6); test: Inhibition of HIPK2 assessed as residual activity at 10 uM by radioactivity assay in presence of 5 uM ATP
[15] = target: Serine/threonine-protein kinase 3 (Homo sapiens) (UniProt Q13188); test: Inhibition of MST2 assessed as residual activity at 10 uM by radioactivity assay in presence of 20 uM ATP
MCF7 [16] = test: Decrease in VEGF expression in human MCF7 cells at >10 uM after 24 hrs by sandwich ELISA; assay type: functional, cell-based
NCI-H226 = test: Cytotoxicity against human NCI-H226 cells; assay type: functional
[17] = target: Mitogen-activated protein kinase kinase kinase 1 (Homo sapiens) (UniProt Q13233); test: Inhibition of MEKK1 assessed as residual activity at 10 uM by radioactivity assay in presence of 20 uM ATP
SF-295 = test: Cytotoxicity against human SF295 cells; assay type: functional
[18] = target: Mitogen-activated protein kinase 1 (Homo sapiens) (UniProt P28482); test: Inhibition of ERK2 assessed as residual activity at 10 uM by radioactivity assay in presence of 20 uM ATP
DU-145 = test: Cytotoxicity against human DU145 cells; assay type: functional
[19] = target: Serine/threonine-protein kinase STK11 (Homo sapiens) (UniProt Q15831); test: Inhibition of LKB1 assessed as residual activity at 10 uM by radioactivity assay in presence of 20 uM ATP
[20] = target: Serine/threonine-protein kinase MARK1 (Homo sapiens) (UniProt Q9P0L2); test: Inhibition of MARK1 assessed as residual activity at 10 uM by radioactivity assay in presence of 20 uM ATP
[21] = Antiangiogenic activity in VEGF-stimulated HMEC1 assessed as reduction in total length of tube at 20 uM after 16 hrs by photographic analysis; assay type: functional, Homo sapiens, HMEC-1; parameters: scale not given: the % may be the effect or the level left
T47D = test: Cytotoxicity against human T47D cells; assay type: functional
HUVEC = test: Antiproliferative activity against HUVEC cells assessed as decrease in cell viability at >50 uM within 72 hrs by calcein AM staining-based fluorescence assay; settings: human
[22] = target: Myosin light chain kinase, smooth muscle (Homo sapiens) (UniProt Q15746); test: Inhibition of SmMLCK assessed as residual activity at 10 uM by radioactivity assay in presence of 50 uM ATP
RXF 393 = test: Cytotoxicity against human RXF393 cells; assay type: functional
HCC 2998 = test: Cytotoxicity against human HCC2998 cells; assay type: functional
[23] = target: Cyclin-dependent kinase 2/cyclin A (Homo sapiens) (UniProt P24941+P20248+P78396); test: Inhibition of CDK2/cyclin A assessed as residual activity at 10 uM by radioactivity assay in presence of 20 uM ATP; assay type: protein-complex assay
SN12C = test: Cytotoxicity against human SN12C cells; assay type: functional
[24] = target: CDK9/cyclin T1 (Homo sapiens) (UniProt O60563+P50750); test: Inhibition of CDK9/cyclin T assessed as residual activity at 10 uM by radioactivity assay in presence of 50 uM ATP; assay type: protein-complex assay
[25] = target: Receptor tyrosine-protein kinase erbB-4 (Homo sapiens) (UniProt Q15303); test: Inhibition of HER4 assessed as residual activity at 10 uM by radioactivity assay in presence of 5 uM ATP
HMEC-1 = test: Antiangiogenic activity in VEGF-stimulated HMEC1 assessed as reduction in tube nodes after 16 hrs by photographic analysis; assay type: functional; settings: Homo sapiens
[26] = target: RAC-alpha serine/threonine-protein kinase (Homo sapiens) (UniProt P31749); test: Inhibition of PKBalpha assessed as residual activity at 10 uM by radioactivity assay in presence of 5 uM ATP
[27] = target: Cyclin-dependent kinase 7 (Homo sapiens) (UniProt P50613); test: Inhibition of CDK7-catalyzed RNA polymerase 2 phosphorylation at Ser5 in human HMEC1 cells at 5 to 40 uM after 2 hrs by immunoblotting; assay type: cell-based

Chain of Cyclin-dependent kinase 7 (Homo sapiens) (P50613 whole entry): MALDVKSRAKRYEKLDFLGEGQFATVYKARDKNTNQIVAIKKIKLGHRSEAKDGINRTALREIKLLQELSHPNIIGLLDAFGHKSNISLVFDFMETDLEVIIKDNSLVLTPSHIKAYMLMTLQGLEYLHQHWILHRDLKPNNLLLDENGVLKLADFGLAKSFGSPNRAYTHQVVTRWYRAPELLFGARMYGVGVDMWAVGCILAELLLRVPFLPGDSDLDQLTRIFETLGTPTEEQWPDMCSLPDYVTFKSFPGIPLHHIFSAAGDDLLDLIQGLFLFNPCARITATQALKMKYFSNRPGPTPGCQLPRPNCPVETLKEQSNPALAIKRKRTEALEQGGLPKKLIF
Chain of Aurora kinase A (Homo sapiens) (O14965 whole entry): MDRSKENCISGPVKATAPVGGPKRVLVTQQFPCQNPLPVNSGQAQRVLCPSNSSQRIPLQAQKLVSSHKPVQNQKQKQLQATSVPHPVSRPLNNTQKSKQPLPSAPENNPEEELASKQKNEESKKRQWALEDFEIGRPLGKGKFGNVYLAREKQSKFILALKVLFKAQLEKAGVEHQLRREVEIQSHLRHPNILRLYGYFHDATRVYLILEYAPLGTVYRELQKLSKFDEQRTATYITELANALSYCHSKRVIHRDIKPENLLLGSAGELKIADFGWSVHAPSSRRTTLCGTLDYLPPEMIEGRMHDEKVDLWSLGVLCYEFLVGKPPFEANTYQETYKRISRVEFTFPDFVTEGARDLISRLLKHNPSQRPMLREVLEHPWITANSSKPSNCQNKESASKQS
Chain of Homeodomain-interacting protein kinase 2 (Homo sapiens) (Q9H2X6 whole entry, looked up): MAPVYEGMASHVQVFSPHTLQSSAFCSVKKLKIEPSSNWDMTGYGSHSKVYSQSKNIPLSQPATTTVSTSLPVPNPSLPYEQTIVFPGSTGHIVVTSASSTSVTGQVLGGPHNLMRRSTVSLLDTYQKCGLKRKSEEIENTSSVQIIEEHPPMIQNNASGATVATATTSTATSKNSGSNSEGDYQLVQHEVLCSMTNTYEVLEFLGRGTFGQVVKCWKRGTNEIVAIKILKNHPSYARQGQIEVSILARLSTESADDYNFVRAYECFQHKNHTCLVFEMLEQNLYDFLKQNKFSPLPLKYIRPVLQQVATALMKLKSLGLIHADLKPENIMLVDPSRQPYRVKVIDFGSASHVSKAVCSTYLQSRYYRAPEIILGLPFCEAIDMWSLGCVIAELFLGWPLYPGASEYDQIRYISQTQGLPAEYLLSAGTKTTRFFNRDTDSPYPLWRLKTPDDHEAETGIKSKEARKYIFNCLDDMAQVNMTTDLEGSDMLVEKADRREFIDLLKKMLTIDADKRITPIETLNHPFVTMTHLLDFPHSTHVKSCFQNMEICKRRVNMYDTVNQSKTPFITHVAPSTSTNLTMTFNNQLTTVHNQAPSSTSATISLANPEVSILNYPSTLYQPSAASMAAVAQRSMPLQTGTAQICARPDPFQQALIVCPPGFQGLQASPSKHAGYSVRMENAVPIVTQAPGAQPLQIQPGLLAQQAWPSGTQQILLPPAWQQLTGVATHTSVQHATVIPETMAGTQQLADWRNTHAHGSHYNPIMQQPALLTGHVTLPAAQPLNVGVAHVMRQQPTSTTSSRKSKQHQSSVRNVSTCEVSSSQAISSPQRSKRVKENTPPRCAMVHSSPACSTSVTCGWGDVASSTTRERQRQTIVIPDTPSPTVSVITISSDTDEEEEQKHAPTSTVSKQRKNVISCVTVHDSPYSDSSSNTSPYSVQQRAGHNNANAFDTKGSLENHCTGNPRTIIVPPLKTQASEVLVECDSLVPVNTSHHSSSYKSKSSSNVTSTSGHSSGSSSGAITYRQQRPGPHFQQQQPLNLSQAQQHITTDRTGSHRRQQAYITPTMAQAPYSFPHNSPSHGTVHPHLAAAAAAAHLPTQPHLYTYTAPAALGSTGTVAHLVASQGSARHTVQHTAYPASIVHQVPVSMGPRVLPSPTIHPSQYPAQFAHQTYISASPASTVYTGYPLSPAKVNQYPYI
Chain of Maternal embryonic leucine zipper kinase (Homo sapiens) (Q14680 whole entry, looked up): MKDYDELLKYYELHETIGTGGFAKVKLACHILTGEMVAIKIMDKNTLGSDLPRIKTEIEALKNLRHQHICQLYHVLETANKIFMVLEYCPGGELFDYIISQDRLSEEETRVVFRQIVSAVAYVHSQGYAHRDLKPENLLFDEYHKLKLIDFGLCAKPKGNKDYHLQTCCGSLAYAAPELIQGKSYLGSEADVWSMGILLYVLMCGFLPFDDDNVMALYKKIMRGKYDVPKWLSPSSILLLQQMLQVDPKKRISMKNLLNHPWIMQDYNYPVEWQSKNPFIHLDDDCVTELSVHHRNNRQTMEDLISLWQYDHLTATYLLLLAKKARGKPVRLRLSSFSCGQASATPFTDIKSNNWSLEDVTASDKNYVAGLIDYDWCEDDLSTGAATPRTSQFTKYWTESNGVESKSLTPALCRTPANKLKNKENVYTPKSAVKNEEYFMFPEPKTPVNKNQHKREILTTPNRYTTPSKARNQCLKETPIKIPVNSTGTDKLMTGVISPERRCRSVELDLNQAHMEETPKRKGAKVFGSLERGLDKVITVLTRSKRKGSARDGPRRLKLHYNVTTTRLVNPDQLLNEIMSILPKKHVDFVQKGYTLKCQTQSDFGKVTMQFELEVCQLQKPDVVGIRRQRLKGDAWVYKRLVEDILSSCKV
Chain of Mitogen-activated protein kinase kinase kinase 1 (Homo sapiens) (Q13233 whole entry): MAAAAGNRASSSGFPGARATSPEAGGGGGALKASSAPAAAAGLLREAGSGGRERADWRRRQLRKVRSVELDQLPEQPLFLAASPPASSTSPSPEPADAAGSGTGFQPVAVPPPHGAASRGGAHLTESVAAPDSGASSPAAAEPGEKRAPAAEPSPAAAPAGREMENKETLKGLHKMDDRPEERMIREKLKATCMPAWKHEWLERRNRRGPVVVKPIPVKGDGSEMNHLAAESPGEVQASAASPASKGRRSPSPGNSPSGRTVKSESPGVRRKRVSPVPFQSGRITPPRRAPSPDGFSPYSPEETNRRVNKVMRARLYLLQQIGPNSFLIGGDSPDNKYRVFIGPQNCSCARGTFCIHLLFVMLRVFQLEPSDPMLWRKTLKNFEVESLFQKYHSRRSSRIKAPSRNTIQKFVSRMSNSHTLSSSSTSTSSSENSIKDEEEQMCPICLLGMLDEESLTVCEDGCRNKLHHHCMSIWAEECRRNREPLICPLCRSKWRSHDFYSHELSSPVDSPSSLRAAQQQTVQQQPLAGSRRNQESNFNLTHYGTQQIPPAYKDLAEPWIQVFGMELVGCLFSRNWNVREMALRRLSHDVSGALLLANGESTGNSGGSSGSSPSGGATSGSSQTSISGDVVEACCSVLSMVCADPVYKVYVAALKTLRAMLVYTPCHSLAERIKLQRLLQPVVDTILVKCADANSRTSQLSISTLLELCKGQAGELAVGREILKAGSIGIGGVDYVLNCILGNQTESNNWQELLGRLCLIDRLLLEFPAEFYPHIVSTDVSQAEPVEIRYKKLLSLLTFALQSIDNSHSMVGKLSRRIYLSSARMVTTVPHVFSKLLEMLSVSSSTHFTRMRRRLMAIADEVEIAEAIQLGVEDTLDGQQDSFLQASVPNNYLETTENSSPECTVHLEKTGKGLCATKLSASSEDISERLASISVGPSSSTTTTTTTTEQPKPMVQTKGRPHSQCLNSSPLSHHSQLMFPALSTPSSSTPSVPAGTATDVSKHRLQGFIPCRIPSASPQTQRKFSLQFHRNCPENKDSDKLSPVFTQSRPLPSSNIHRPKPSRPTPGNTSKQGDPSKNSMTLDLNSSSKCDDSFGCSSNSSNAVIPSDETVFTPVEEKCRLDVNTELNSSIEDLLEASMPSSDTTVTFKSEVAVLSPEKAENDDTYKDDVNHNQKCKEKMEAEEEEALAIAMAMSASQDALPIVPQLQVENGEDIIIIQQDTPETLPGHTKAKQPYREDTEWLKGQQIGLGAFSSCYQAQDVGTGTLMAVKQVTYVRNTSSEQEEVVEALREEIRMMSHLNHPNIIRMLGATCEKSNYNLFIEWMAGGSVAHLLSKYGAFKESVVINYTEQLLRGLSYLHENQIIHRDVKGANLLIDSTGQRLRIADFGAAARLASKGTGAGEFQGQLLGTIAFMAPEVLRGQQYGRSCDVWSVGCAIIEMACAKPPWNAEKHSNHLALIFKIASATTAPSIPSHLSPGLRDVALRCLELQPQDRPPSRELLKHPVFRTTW
Chain of Serine/threonine-protein kinase pim-2 (Homo sapiens) (Q9P1W9 whole entry, looked up, canonical isoform): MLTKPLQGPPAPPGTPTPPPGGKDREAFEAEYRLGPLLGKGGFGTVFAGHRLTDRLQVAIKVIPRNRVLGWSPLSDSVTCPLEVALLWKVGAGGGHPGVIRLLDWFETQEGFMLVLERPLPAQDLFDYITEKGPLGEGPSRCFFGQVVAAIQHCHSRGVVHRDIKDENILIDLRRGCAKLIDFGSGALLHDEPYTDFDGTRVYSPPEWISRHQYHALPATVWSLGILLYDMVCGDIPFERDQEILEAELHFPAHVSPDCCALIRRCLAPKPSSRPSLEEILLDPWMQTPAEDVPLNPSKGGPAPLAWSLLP
Chain of 3-phosphoinositide-dependent protein kinase 1 (Homo sapiens) (O15530 whole entry, looked up): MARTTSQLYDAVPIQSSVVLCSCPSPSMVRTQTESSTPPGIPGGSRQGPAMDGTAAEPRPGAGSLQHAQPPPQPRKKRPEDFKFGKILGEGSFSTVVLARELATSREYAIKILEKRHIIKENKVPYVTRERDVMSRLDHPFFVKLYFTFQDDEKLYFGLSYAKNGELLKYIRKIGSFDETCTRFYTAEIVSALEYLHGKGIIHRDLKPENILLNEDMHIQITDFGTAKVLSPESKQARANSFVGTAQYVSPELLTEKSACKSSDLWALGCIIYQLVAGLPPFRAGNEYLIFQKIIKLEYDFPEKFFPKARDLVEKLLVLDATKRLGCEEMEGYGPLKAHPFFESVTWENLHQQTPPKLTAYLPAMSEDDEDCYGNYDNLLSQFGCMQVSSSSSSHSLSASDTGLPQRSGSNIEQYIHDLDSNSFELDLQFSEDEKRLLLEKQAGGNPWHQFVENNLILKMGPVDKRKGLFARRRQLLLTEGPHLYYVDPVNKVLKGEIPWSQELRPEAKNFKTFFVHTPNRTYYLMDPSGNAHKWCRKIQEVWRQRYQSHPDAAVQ

For Nc1n[nH]c(N)c1/N=N/c1ccc(O)cc1, the Activity [1] was 37%, the inhibition [2] was “Active” and the Activity [3] was 85%. The Activity [4] was 46%, the GI50 (MCF7 [5]) was 23.5 µM and the GI50 (Malme-3M) was 24.5 µM. It also gave an Activity [6] of 107%, an Activity [7] of 52% and a GI50 (UO-31) of 13.7 µM. The Activity [8] was 66%, the GI50 (IGROV-1) was 20.6 µM and the Activity [9] was 69%. The Activity [10] was 27%, the GI50 (SNB-19) was 29.9 µM and the Activity [11] was 31%. The Activity [12] was 108%, the Activity [13] was 48% and the Activity [14] was 44%. The Activity [15] was 57%, the Activity (MCF7 [16]) was “Active” and the GI50 (NCI-H226) was 17.7 µM. It also gave an Activity [17] of 100%, a GI50 (SF-295) of 23.3 µM and an Activity [18] of 106%. The GI50 (DU-145) was 17 µM, the Activity [19] was 37% and the Activity [20] was 72%. The Activity [21] was 20%, the GI50 (T47D) was 14.2 µM and the Activity (HUVEC) was “Non-toxic”. The Activity [22] was 54%, the GI50 (RXF 393) was 18.4 µM and the GI50 (HCC 2998) was 29.4 µM. For the same compound, the Activity [23] was 27%, the GI50 (SN12C) was 23.3 µM and the Activity [24] was 12%. For the same compound, the Activity [25] was 59%, the Activity (HMEC-1) was “inactive” and the Activity [26] was 100%. For the same compound, the inhibition [27] was “Active”.
